Measured values as given in patent US10072017B2, “Compounds and methods for the treatment of cystic fibrosis” (Flatley Discovery Lab, LLC, priority 2015, dated 2018).

Molecular target: T1, CFTR (Homo sapiens, UniProt P13569, DEL508-508)
T1 construct: Primary CF airway epithelial cells were obtained from the UNC Cystic Fibrosis Tissue Procurement and Cell Culture Core; host or cells: primary CF airway epithelial cells
Assay: Equivalent current assay in Primary CF airway epithelial cells (NAUC)
Format: cell-based
Details: 24 h, normalized to VX809 (3 μM) positive control; for Nauc @ 3 μM: 3 μM test compound; for Nauc @ 10 μM: 10 μM test compound
Outline: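 Primary CF airway epithelia differentiated ≥4 weeks at air-liquid interface, treated basolaterally 24 h at 37 °C with test compounds in combination with VX809, 0.1% DMSO vehicle. Equivalent current recorded after 5 μM benzamil, 10 μM forskolin plus 1 μM VX770, then CFTR-172/bumetanide 20 μM; vehicle-subtracted AUC normalized to 3 μM VX809 (NAUC), median of n≥4, sigmoid fit for EC50.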

T1 sequence (P13569 with tags, fused parts or gaps DEL508-508): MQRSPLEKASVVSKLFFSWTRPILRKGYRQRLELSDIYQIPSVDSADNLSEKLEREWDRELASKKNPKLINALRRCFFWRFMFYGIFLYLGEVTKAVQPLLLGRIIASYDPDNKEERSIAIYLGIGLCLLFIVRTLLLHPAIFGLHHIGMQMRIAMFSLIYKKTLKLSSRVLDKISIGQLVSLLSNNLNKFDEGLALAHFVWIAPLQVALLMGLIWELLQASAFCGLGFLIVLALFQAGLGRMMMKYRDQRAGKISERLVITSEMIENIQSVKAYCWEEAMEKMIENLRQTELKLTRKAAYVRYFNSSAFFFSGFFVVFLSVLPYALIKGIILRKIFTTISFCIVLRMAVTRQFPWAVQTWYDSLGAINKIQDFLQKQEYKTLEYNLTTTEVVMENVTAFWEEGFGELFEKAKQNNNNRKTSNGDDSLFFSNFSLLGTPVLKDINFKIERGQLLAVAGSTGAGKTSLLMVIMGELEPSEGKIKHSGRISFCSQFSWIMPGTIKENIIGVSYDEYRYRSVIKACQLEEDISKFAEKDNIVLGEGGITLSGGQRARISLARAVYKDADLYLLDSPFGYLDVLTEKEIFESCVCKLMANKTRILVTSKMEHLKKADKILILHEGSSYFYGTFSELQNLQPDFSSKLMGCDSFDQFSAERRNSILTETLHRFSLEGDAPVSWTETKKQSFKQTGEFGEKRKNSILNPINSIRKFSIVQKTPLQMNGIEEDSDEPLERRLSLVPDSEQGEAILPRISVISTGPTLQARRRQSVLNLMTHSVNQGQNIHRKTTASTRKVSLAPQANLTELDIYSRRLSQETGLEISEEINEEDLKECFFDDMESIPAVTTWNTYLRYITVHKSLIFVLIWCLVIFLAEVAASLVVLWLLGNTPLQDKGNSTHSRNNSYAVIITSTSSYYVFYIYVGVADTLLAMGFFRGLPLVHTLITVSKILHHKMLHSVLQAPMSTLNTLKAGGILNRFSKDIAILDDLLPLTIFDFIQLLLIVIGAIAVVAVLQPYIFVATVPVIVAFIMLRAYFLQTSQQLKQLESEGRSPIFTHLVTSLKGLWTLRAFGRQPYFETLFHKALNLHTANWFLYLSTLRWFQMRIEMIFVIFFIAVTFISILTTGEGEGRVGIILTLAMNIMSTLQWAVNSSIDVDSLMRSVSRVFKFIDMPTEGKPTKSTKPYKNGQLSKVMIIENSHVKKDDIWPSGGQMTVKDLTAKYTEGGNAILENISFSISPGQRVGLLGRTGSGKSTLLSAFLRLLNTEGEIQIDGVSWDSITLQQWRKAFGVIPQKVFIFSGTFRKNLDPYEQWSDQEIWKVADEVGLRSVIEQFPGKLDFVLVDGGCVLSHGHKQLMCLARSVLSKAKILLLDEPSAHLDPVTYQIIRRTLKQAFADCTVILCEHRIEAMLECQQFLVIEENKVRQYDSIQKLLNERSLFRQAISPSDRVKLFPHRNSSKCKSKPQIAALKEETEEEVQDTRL

In the case of `C[C@]1(O)CC2C3C(=O)N(c4cc(Cl)cc(Cl)n4)C(=O)C3C3(C(=O)Nc4c(Cl)cc(Cl)cc43)N2C1` (stereo partly shown) [Example 172], the “Nauc @ 3 μM” value is reported as “++ (NAUC “++” refers to an observed NAUC 170-140% of positive control)” and the “Nauc @ 10 μM” value is reported as “+++ (NAUC “+++” refers to an observed NAUC >170% of positive control)”.
In the case of `O=C1C2C3CCCN3C3(C(=O)Nc4c(Cl)cc(Cl)cc43)C2C(=O)N1c1cc(Cl)c(OC(F)F)c(Cl)c1` (single isomer, unassigned) [Example 250], the “Nauc @ 3 μM” value is reported as “+++ (NAUC “+++” refers to an observed NAUC >170% of positive control)” and the “Nauc @ 10 μM” value is reported as “+++ (NAUC “+++” refers to an observed NAUC >170% of positive control)”.
With `C[C@]1(F)CC2C3C(=O)N(c4cc(Cl)cc(Cl)n4)C(=O)C3C3(C(=O)Nc4c(Cl)cc(Cl)cc43)N2C1` (stereo partly shown) [Example 231] the “Nauc @ 3 μM” value was “+ (NAUC “+” refers to an observed NAUC <140% of positive control)” and the “Nauc @ 10 μM” value was “+++ (NAUC “+++” refers to an observed NAUC >170% of positive control)”.
For `O=C1C2C3CCCN3C3(C(=O)Nc4c(F)cc(Cl)cc43)C2C(=O)N1c1cc(F)cc(Cl)c1` (stereo not shown) [Example 37], the “Nauc @ 3 μM” value was “+ (NAUC “+” refers to an observed NAUC <140% of positive control)” and the “Nauc @ 10 μM” value was “++ (NAUC “++” refers to an observed NAUC 170-140% of positive control)”.
`COc1cc(Cl)cc(N2C(=O)C3C4CC(=C(F)F)CN4C4(C(=O)Nc5c(Cl)cc(Cl)cc54)C3C2=O)c1` (single isomer, unassigned) [Example 139] was tested, and the “Nauc @ 3 μM” value was “++ (NAUC “++” refers to an observed NAUC 170-140% of positive control)” and the “Nauc @ 10 μM” value was “+ (NAUC “+” refers to an observed NAUC <140% of positive control)”.
For `C[C@]1(O)CC2C3C(=O)N(c4ccon4)C(=O)C3C3(C(=O)Nc4c(Cl)cc(Cl)cc43)N2C1` (stereo partly shown) [Example 234], the “Nauc @ 3 μM” value was “+ (NAUC “+” refers to an observed NAUC <140% of positive control)” and the “Nauc @ 10 μM” value was “++ (NAUC “++” refers to an observed NAUC 170-140% of positive control)”.
For `N#Cc1ccc(CC2NC3(C(=O)Nc4c(Cl)cc(Cl)cc43)C3C(=O)N(c4cc(Cl)cc(Cl)c4)C(=O)C23)cc1` (stereo not shown) [Example 189], the “Nauc @ 3 μM” value was “+ (NAUC “+” refers to an observed NAUC <140% of positive control)” and the “Nauc @ 10 μM” value was “+++ (NAUC “+++” refers to an observed NAUC >170% of positive control)”.
`CC(=O)Oc1c(Cl)cc(Cl)cc1N1C(=O)C2C3C[C@H](F)CN3C3(C(=O)Nc4c(Cl)cc(Cl)cc43)C2C1=O` (stereo partly shown) [Example 92] was tested, and the “Nauc @ 3 μM” value was “+++ (NAUC “+++” refers to an observed NAUC >170% of positive control)” and the “Nauc @ 10 μM” value was “+ (NAUC “+” refers to an observed NAUC <140% of positive control)”.
With `Cc1nc(CC2NC3(C(=O)Nc4c(Cl)cc(Cl)cc43)C3C(=O)N(c4cc(Cl)cc(Cl)c4)C(=O)C23)cs1` (stereo not shown) [Example 248] the “Nauc @ 3 μM” value was “+ (NAUC “+” refers to an observed NAUC <140% of positive control)” and the “Nauc @ 10 μM” value was “++ (NAUC “++” refers to an observed NAUC 170-140% of positive control)”.
For `O=C1C2C3CCCN3C3(C(=O)Nc4c(Cl)cc(Cl)cc43)C2C(=O)N1c1cc(Cl)nc(Cl)c1` (stereo not shown) [Example 33], the “Nauc @ 3 μM” value was “++ (NAUC “++” refers to an observed NAUC 170-140% of positive control)” and the “Nauc @ 10 μM” value was “+++ (NAUC “+++” refers to an observed NAUC >170% of positive control)”.
`O=C1C2C3CC(=C(F)F)CN3C3(C(=O)Nc4c(Cl)cc(Cl)cc43)C2C(=O)N1c1cc(Cl)cc(Cl)c1` (single isomer, unassigned) [Example 116] was tested, and the “Nauc @ 3 μM” value was “+++ (NAUC “+++” refers to an observed NAUC >170% of positive control)” and the “Nauc @ 10 μM” value was “+++ (NAUC “+++” refers to an observed NAUC >170% of positive control)”.
